Several values for one entry are separate records, joined by “and”; a condition that tells them apart may be missing. Equal entries are not always repeated.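 Grown in 96-well plates, cells were treated for 48 hours with each compound at five concentrations. Insufficient inhibition: endpoint recorded as highest concentration tested. At the GI50, growth is halved. TGI: total growth inhibition.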

Test in all cases: NCI-60 cell line screen, 48 h
Test [1] deals with 786-0 renal.
Test [2] has as its system SK-MEL-2 melanoma.
Test [3] deals with A549 NSCLC.
Test [4] relates to SK-MEL-5 melanoma.
In test [5] the test system is U251 CNS.
Test [6] concerns UACC-62 melanoma.
For test [7], the system named is HCC-2998 colon.
The test system of test [8] is T-47D breast.
Test [9] deals with SF-268 CNS.
Test [10] relates to K-562 leukemia.

Turning to `O=C1/C(=C\c2ccc(F)cc2)CN(C(=O)c2ccccc2F)C/C1=C\c1ccc(F)cc1`, the GI50 in test [1] was 1.61 µM; in test [2] it was 2.04 µM; in [3], 2.59 µM; in [4], 1.45 µM; in test [5], 1.27 µM; in test [6], 1.46 µM. Besides, the GI50 was 1.81 µM in [7], 2.28 µM in [8], 2.02 µM in test [9] and 0.414 µM in test [10]. In addition, the TGI is 3.17 µM in [1]; 4.61 µM in test [2]; 8.75 µM in test [3]; 2.83 µM in [4]; 2.58 µM in test [5]; 3.05 µM in test [6]. For the same compound, the TGI came out at 3.32 µM in [7], 7.02 µM in test [8] and 4.97 µM in [9].

Regarding `Cc1sc(C(=O)c2cncnc2N[C@@H]2C[C@H](COS(N)(=O)=O)[C@@H](O)C2)cc1[C@@H]1NCCc2ccc(Cl)cc21`, the GI50 in test [1] was 12.9 µM; in test [2] it was 5.58 µM; in test [3], 2.21 µM; in [4], 1.94 µM; in [5] it was 10.9 µM; in [6] it was 3.75 µM. The GI50 in [7] was 0.922 µM; in test [8] it was 2.37 µM; in test [9], 14.4 µM; in test [10], 4.19 µM. Moreover, the TGI amounted to 28.8 µM in [1]; 23.9 µM in test [2]; 22.3 µM in test [3]; 17.3 µM in test [4]; 26.7 µM in test [5]; 21.7 µM in test [6]. The TGI in test [7] is 19.9 µM; in test [8], 29.3 µM; in test [9] it was 32.4 µM; in test [10] it was 34.2 µM.

For `O=C(Nc1ccncc1)C(=O)c1cn(S(=O)(=O)c2cccc(Cl)c2)c2ccccc12`, the GI50 is 7.94 µM in [1]; 11 µM in [2]; 22.4 µM in test [3]; 3.61 µM in test [4]; 5.78 µM in test [5]; 5.81 µM in test [6]. Further, the GI50 in test [7] was 13.9 µM; in [8], 9.08 µM; in test [9] it was 8.36 µM; in test [10] it was 2.5 µM. Besides, the TGI in test [1] is 43.6 µM; in test [2], above 100 µM; in test [3] it was above 100 µM; in [4] it was 39.5 µM; in [5] it was above 100 µM; in test [6], above 100 µM. Besides, the TGI in test [7], in [8], in test [9] and in test [10] was above 100 µM each time.

Regarding `CC12OC(CC(O)C1O)n1c3ccccc3c3c4c(c5c6ccccc6n2c5c31)C(=O)N(CCN1CCOCC1)C4=O` (centres undefined), the GI50 in test [1] was 1.29 µM; in [2], 2.18 µM; in [3] it was 0.4 µM; in [4] it was 0.791 µM; in [5], 0.604 µM; in test [6] it was 0.568 µM. Further, the GI50 in [7] is 3.25 µM; in test [8], 0.651 µM; in test [9], 1.08 µM; in test [10] it was 1.25 µM. Also, the TGI in [1] came to 5.68 µM; in test [2], 10.6 µM; in [3], 2.35 µM; in test [4] it was 2.87 µM; in [5], 5.65 µM; in test [6], 1.47 µM. Moreover, the TGI was found to be 10.6 µM in [7], 3.84 µM in test [8], 7.87 µM in test [9] and 10.4 µM in test [10].

As for `C=C1C(=O)O[C@H]2[C@H]1CC/C(COC(=O)c1cccnc1N)=C\CC[C@@]1(C)O[C@@H]21`, the GI50 was 1.7 µM in test [1]; 3.16 µM in [2]; 3.77 µM in [3]; 2.9 µM in test [4]; 3.77 µM in test [5]; 3.02 µM in test [6]. In addition, the GI50 in test [7] is 4.43 µM; in [8], 1.85 µM; in test [9], 3.54 µM; in test [10], 0.396 µM. The TGI was determined as 4.24 µM in [1]; 12.5 µM in test [2]; 16.5 µM in [3]; 12.5 µM in test [4]; 14.5 µM in test [5]; 13.3 µM in test [6]. For the same compound, the TGI turned out to be 16.2 µM in [7], 8.01 µM in [8], 16.5 µM in [9] and 14.1 µM in [10].

Take `CC1(C)C(N2CCOCC2)CS1(=O)=O` (centres undefined): the TGI in test [1], in test [2], in test [3], in test [4], in test [5] and in test [6] was above 10 µM each time. Also, the TGI in test [7], in test [8], in test [9] and in [10] was above 10 µM throughout.

Consider `Cc1cc(O)ccc1C1=NN(c2ccc(S(N)(=O)=O)cc2)C(=O)CC1`, for which the GI50 in test [1] was 18.9 µM and 43.6 µM; in [2], 16.8 µM and 10.4 µM; in test [3], 14 µM and 15.3 µM; in test [4], 2.1 µM and 6.78 µM; in test [5] it was 6.97 µM and 16.1 µM; in [6], 2.74 µM and 3.68 µM. Further, the GI50 in test [7] is > 50 µM and 63.9 µM; in [8], 3.23 µM and 13.1 µM; in [9] it was 10.1 µM and 25.5 µM; in [10], 3 µM and 2.68 µM. Further, the TGI in [1] is 50 µM and > 100 µM; in [2] it was 50 µM and 77.7 µM; in test [3], 50 µM and > 100 µM; in [4], 50 µM and > 100 µM; in [5], 50 µM and 67 µM; in test [6], 50 µM and > 100 µM. Further, the TGI in test [7] was above 100 µM; in [8], 50 µM and > 100 µM; in test [9] it was 50 µM and > 100 µM; in test [10], 50 µM and > 100 µM.

Consider `COc1ccc(OC)c(Nc2nc3nonc3nc2Nc2cccc(Br)c2)c1`, for which the GI50 was 1.71 µM in test [1]; 0.509 µM in test [2]; 0.713 µM in test [3]; 0.297 µM in test [4]; 0.577 µM in test [5]; 0.301 µM in test [6]. The GI50 in test [7] was 0.818 µM; in test [8], 0.285 µM; in test [9] it was 0.982 µM; in test [10], 0.556 µM. Further, the TGI in test [1] was 13.8 µM; in [2], 3.84 µM; in [3], above 100 µM; in test [4] it was 1.57 µM; in test [5] it was 11.7 µM; in [6] it was 14.1 µM. The TGI in test [7] was above 100 µM; in test [8] it was 2.17 µM; in test [9], above 100 µM; in test [10], 17.5 µM.
